Values joined by “and” are separate entries in the source; they are usually repeats but may differ in a detail not shown here. Identical values can stand only once. Inconclusive results and toxic doses are left out.

The values that follow come from PubChem BioAssay AID256 (DTP/NCI, 2004).

This experiment relates to CD2F1 mice, L1210 leukemia ip, survival T/C. Kind of experiment: NCI In Vivo Anticancer Drug Screen. Data for tumor model L1210 Leukemia (intraperitoneal) in CD2F1 (CDF1) mice. The conditions noted are these: higher = longer survival. The method, boiled down: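 Vehicle-treated tumor-bearing mice served as controls (C) for compound-treated mice (T). Reported figure is T divided by C.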

[1] abbreviates: endpoint: mean survival time, dose: 100.0 mg/kg/injection, schedule: Q04DX003 (ip), vehicle: saline with Tween-80.
Setting [2] is: endpoint: mean survival time, dose: 200.0 mg/kg/injection, schedule: Q04DX003 (ip), vehicle: saline with Tween-80.

Regarding `COC1C(CO)OC(n2c3c(Cl)cccc3c3c4c(c5c6cccc(Cl)c6[nH]c5c32)C(=O)NC4=O)C(O)C1O` (stereo unspecified), the T/C runs as follows: (endpoint: median survival time, dose: 12.5 mg/kg/injection, schedule: Q01DX009 (ip), vehicle: distilled water + Tween-80) 105 % of control and 112 % of control; (endpoint: median survival time, dose: 25.0 mg/kg/injection, schedule: Q01DX009 (ip), vehicle: distilled water + Tween-80) 114 % of control; (endpoint: median survival time, dose: 36.0 mg/kg/injection, schedule: Q01DX009 (ip), vehicle: distilled water + Tween-80) 113 % of control; (endpoint: median survival time, dose: 50.0 mg/kg/injection, schedule: Q01DX009 (ip), vehicle: distilled water + Tween-80) 112 % of control; (endpoint: median survival time, dose: 60.0 mg/kg/injection, schedule: Q01DX009 (ip), vehicle: distilled water + Tween-80) 115 % of control; (endpoint: median survival time, dose: 100.0 mg/kg/injection, schedule: Q01DX009 (ip), vehicle: distilled water + Tween-80) 121 % of control and 103 % of control. Further, the T/C is, setting by setting: (endpoint: median survival time, dose: 166.7 mg/kg/injection, schedule: Q01DX009 (ip), vehicle: distilled water + Tween-80) 122 % of control; (endpoint: median survival time, dose: 200.0 mg/kg/injection, schedule: Q01DX009 (ip), vehicle: distilled water + Tween-80) 95 % of control.

As to `CCCCOC(=O)COc1ccc(F)cc1F`, the T/C reads like this: (endpoint: mean survival time, dose: 100.0 mg/kg/injection, schedule: Q04DX002 (ip), vehicle: saline with Tween-80) 95 % of control; (endpoint: mean survival time, dose: 200.0 mg/kg/injection, schedule: Q04DX002 (ip), vehicle: saline with Tween-80) 100 % of control; (endpoint: mean survival time, dose: 400.0 mg/kg/injection, schedule: Q04DX002 (ip), vehicle: saline with Tween-80) 92 % of control.

As for `NCCc1ccccn1`, the T/C under setting [1] is 96 % of control and the T/C under setting [2] is 101 % of control.

`CCCCCCCCCCCc1nc(N)n[nH]1`: the T/C runs as follows: under setting [1], 98 % of control; under setting [2], 102 % of control; (endpoint: mean survival time, dose: 400.0 mg/kg/injection, schedule: Q04DX003 (ip), vehicle: saline with Tween-80) 102 % of control.

As to `[Pd+2].[S-]CC[S-]`, the T/C (endpoint: mean survival time, dose: 3.13 mg/kg/injection, schedule: Q04DX003 (ip), vehicle: distilled water + Tween-80) was 101 % of control; the T/C (endpoint: mean survival time, dose: 6.25 mg/kg/injection, schedule: Q04DX003 (ip), vehicle: distilled water + Tween-80) was 102 % of control; the T/C (endpoint: mean survival time, dose: 12.5 mg/kg/injection, schedule: Q04DX003 (ip), vehicle: distilled water + Tween-80) was 101 % of control; the T/C (endpoint: mean survival time, dose: 25.0 mg/kg/injection, schedule: Q04DX003 (ip), vehicle: distilled water + Tween-80) is 104 % of control; the T/C (endpoint: mean survival time, dose: 50.0 mg/kg/injection, schedule: Q04DX003 (ip), vehicle: distilled water + Tween-80) was 95 % of control; the T/C (endpoint: mean survival time, dose: 100.0 mg/kg/injection, schedule: Q04DX003 (ip), vehicle: distilled water + Tween-80) was 95 % of control. The T/C (endpoint: mean survival time, dose: 200.0 mg/kg/injection, schedule: Q04DX003 (ip), vehicle: distilled water + Tween-80) is 95 % of control.

Take `CCCCn1cnc2c(=S)nc(N)[nH]c21`: the T/C (endpoint: mean survival time, dose: 25.0 mg/kg/injection, schedule: Q01DX009 (ip), vehicle: saline with Tween-80) was 162 % of control; the T/C (endpoint: mean survival time, dose: 50.0 mg/kg/injection, schedule: Q01DX009 (ip), vehicle: saline with Tween-80) is 171 % of control; the T/C (endpoint: mean survival time, dose: 50.0 mg/kg/injection, schedule: Q04DX003 (ip), vehicle: saline with Tween-80) is 157 % of control.
